Experimental data as given in US20250026724A1, “(1,4,5-TRISUBSTITUTED 1H-PYRAZOL-3-YL)OXY-2-ALKYLTHIOALKYL ACIDS AND -ALKYL ACID DERIVATIVES, SALTS THEREOF AND USE THEREOF AS ACTIVE HERBICIDAL INGREDIENTS” (BAYER AKTIENGESELLSCHAFT, priority 2021, published 2025).

The molecules below were run on Triticum aestivum (TRZAS) (assay: Post-emergence crop plant compatibility, greenhouse pot trial). Settings: 20 g/ha, post-emergence, in comparison to untreated controls.
Format: in vivo
Protocol: (§1) Seeds of monocotyledonous and dicotyledonous weeds and crop plants are placed in sandy loam in plastic or organic planting pots, covered with soil and cultivated in a greenhouse under controlled growth conditions. 2 to 3 weeks after sowing, the trial plants are treated at the one-leaf stage. The compounds of the invention, formulated in the form of wettable powders (WP) or as emulsion concentrates (EC), are then sprayed onto the green parts of the plants as aqueous suspension or emulsion with addition of 0.5% additive at a water application rate equivalent to 600 l/ha. After about 3 weeks of keeping the trial plants in the greenhouse under optimum growth conditions, the effect of the preparations is rated visually in comparison to untreated controls. For example, 100% activity=the plants have died, 0% activity=like control plants.
(§2) The observed effects on selected crop plants are reported here in comparison to the untreated controls (values in %). The appendices “a”, “b” and “c” give differentiation by dosage used with otherwise the same useful plants tested.
(§3) As shown by results from Tables B1 to B19, inventive compounds of the general formula (I) in the case of post-emergence treatment have good herbicidal efficacy against harmful plants, for example Abutilon theophrasti (ABUTH), Alopecurus myosuroides (ALOMY), Amaranthus retroflexus (AMARE), Avena fatua (AVEFA), Digitaria sanguinalis (DIGSA), Echinochloa crus-galli (ECHCG), Bassia scoparia (KCHSC), Lolium rigidum (LOLRI), Matricaria inodora (MATIN), Pharbitis purpurea (PHBPU), Polygonum convolvulus (POLCO), Setaria viridis (SETVI), Veronica persica (VERPE) and Viola tricolor (VIOTR) at an application rate of 320 g of active substance or less per hectare, and good crop plant compatibility in the case of organisms such as Oryza sativa (ORYSA), Zea mays (ZEAMX), Brassica napus (BRSNW), Glycine max (GLXMA) and Triticum aestivum (TRZAS) at an application rate of 320 g or less per hectare.

Compound	Post-emergence effect against TRZAS (crop plant compatibility) [%]
CCOC(=O)C(Oc1nn(-c2cc(F)ccc2F)c(-c2cncc(F)c2)c1C1CC1)SC (centres unmarked) [Example I-05]	0
COC(=O)CCOC(=O)C(Oc1nn(-c2ncccc2F)c(-c2cncc(F)c2)c1Br)SC (centres unmarked) [Example I-45]	0

Same assay, conditions: 80 g/ha, post-emergence, in comparison to untreated controls

Compound	Post-emergence effect against TRZAS (crop plant compatibility) [%]
CCOC(=O)C(Oc1nn(-c2cc(F)ccc2F)c(-c2cncc(F)c2)c1C1CC1)SC (centres unmarked) [Example I-05]	10

Each molecule was assayed on Glycine max (GLXMA) in the same assay as above. Settings: 20 g/ha, in comparison to untreated controls.
Format: in vivo
Protocol: as §1, §2, §3

Compound	Post-emergence effect against GLXMA (crop plant compatibility) [%]
CCOC(=O)C(Oc1nn(-c2cc(F)ccc2F)c(-c2cncc(F)c2)c1C1CC1)SC (centres unmarked) [Example I-05]	0

Same assay, conditions: 80 g/ha, in comparison to untreated controls

Compound	Post-emergence effect against GLXMA (crop plant compatibility) [%]
CCOC(=O)C(Oc1nn(-c2cc(F)ccc2F)c(-c2cncc(F)c2)c1C1CC1)SC (centres unmarked) [Example I-05]	10

These molecules were tested on Zea mays (ZEAMX) in the same assay as above. Settings: 20 g/ha, in comparison to untreated controls.
Format: in vivo
Protocol: as §1, §2, §3

Compound	Post-emergence effect against ZEAMX (crop plant compatibility) [%]
CCOC(=O)C(Oc1nn(-c2cc(F)ccc2F)c(-c2cncc(F)c2)c1C1CC1)SC (centres unmarked) [Example I-05]	20
COC(=O)CCOC(=O)C(Oc1nn(-c2ncccc2F)c(-c2cncc(F)c2)c1Br)SC (centres unmarked) [Example I-45]	0

Same assay, conditions: 80 g/ha, in comparison to untreated controls

Compound	Post-emergence effect against ZEAMX (crop plant compatibility) [%]
COC(=O)CCOC(=O)C(Oc1nn(-c2ncccc2F)c(-c2cncc(F)c2)c1Br)SC (centres unmarked) [Example I-45]	0

These molecules were tested on Oryza sativa (ORYSA) in the same assay as above. Settings: 20 g/ha, in comparison to untreated controls.
Format: in vivo
Protocol: as §1, §2, §3

Compound	Post-emergence effect against ORYSA (crop plant compatibility) [%]
CCOC(=O)C(Oc1nn(-c2cc(F)ccc2F)c(-c2cncc(F)c2)c1C1CC1)SC (centres unmarked) [Example I-05]	0

Same assay, conditions: 80 g/ha, in comparison to untreated controls

Compound	Post-emergence effect against ORYSA (crop plant compatibility) [%]
CCOC(=O)C(Oc1nn(-c2cc(F)ccc2F)c(-c2cncc(F)c2)c1C1CC1)SC (centres unmarked) [Example I-05]	0

Same assay, conditions: 320 g/ha, in comparison to untreated controls

Compound	Post-emergence effect against ORYSA (crop plant compatibility) [%]
CCOC(=O)C(Oc1nn(-c2cc(F)ccc2F)c(-c2cncc(F)c2)c1C1CC1)SC (centres unmarked) [Example I-05]	10

The molecules below were run on Setaria viridis (SETVI) (assay: Post-emergence herbicidal action, greenhouse pot trial). Settings: 320 g/ha, visual rating after about 3 weeks.
Format: in vivo
Outline: (§4)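 Visual % activity versus untreated controls (100% = plants died, 0% = like control), scored about 3 weeks post-spray. Plants grown in sandy loam pots under greenhouse conditions were treated at the one-leaf stage with WP or EC formulations at 320 g/ha or lower.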

Compound	Post-emergence effect at 320 g/ha against SETVI in % [%]
COC(=O)CCOC(=O)C(Oc1nn(-c2ncccc2F)c(-c2cncc(F)c2)c1Br)SC (centres unmarked) [Example I-45]	90

Same assay, conditions: Setaria viridis, 504 h, read-out: Post-emergence effect at 320 g/ha against SETVI in %

Compound	pest or weed control at 320 g/ha [%]
CCOC(=O)C(Oc1nn(-c2cc(F)ccc2F)c(-c2cncc(F)c2)c1C1CC1)SC (centres unmarked) [Example I-05]	90

The molecules below were run on Avena fatua (AVEFA) in the same assay as above. Settings: 320 g/ha, visual rating after about 3 weeks.
Format: in vivo
Outline: as §4

Compound	Post-emergence effect at 320 g/ha against AVEFA in % [%]
COC(=O)CCOC(=O)C(Oc1nn(-c2ncccc2F)c(-c2cncc(F)c2)c1Br)SC (centres unmarked) [Example I-45]	100

The molecules below were run on Bassia scoparia (KCHSC) in the same assay as above. Settings: 20 g/ha, visual rating after about 3 weeks.
Format: in vivo
Outline: as §4

Compound	Post-emergence effect at 20 g/ha against KCHSC in % [%]
COC(=O)CCOC(=O)C(Oc1nn(-c2ncccc2F)c(-c2cncc(F)c2)c1Br)SC (centres unmarked) [Example I-45]	90

Same assay, conditions: 80 g/ha

Compound	Post-emergence effect against KCHSC [%]
COC(=O)CCOC(=O)C(Oc1nn(-c2ncccc2F)c(-c2cncc(F)c2)c1Br)SC (centres unmarked) [Example I-45]	90

Same assay, conditions: 320 g/ha

Compound	Post-emergence effect against KCHSC [%]
COC(=O)CCOC(=O)C(Oc1nn(-c2ncccc2F)c(-c2cncc(F)c2)c1Br)SC (centres unmarked) [Example I-45]	90

What follows are molecules tested on Pharbitis purpurea (PHBPU) in the same assay as above. Settings: 80 g/ha, visual rating after about 3 weeks.
Format: in vivo
Outline: as §4

Compound	Post-emergence effect at 80 g/ha against PHBPU in % [%]
COC(=O)CCOC(=O)C(Oc1nn(-c2ncccc2F)c(-c2cncc(F)c2)c1Br)SC (centres unmarked) [Example I-45]	80

Same assay, conditions: 320 g/ha, visual rating after about 3 weeks

Compound	Post-emergence effect at 320 g/ha against PHBPU in % [%]
COC(=O)CCOC(=O)C(Oc1nn(-c2ncccc2F)c(-c2cncc(F)c2)c1Br)SC (centres unmarked) [Example I-45]	80

What follows are molecules tested on Abutilon theophrasti (ABUTH) in the same assay as above. Settings: 20 g/ha, visual rating after about 3 weeks.
Format: in vivo
Outline: as §4

Compound	Post-emergence action at 20 g/ha against ABUTH in % [%]
COC(=O)CCOC(=O)C(Oc1nn(-c2ncccc2F)c(-c2cncc(F)c2)c1Br)SC (centres unmarked) [Example I-45]	90

Same assay, conditions: 80 g/ha, visual rating after about 3 weeks

Compound	Post-emergence effect at 80 g/ha against ABUTH in % [%]
COC(=O)CCOC(=O)C(Oc1nn(-c2ncccc2F)c(-c2cncc(F)c2)c1Br)SC (centres unmarked) [Example I-45]	90

Same assay, conditions: 320 g/ha, visual rating after about 3 weeks

Compound	Post-emergence effect at 320 g/ha against ABUTH in % [%]
COC(=O)CCOC(=O)C(Oc1nn(-c2ncccc2F)c(-c2cncc(F)c2)c1Br)SC (centres unmarked) [Example I-45]	90

Each molecule was assayed on Polygonum convolvulus (POLCO) in the same assay as above. Settings: 80 g/ha, visual rating after about 3 weeks.
Format: in vivo
Outline: as §4

Compound	Post-emergence effect at 80 g/ha against POLCO in % [%]
COC(=O)CCOC(=O)C(Oc1nn(-c2ncccc2F)c(-c2cncc(F)c2)c1Br)SC (centres unmarked) [Example I-45]	80

Same assay, conditions: 320 g/ha, visual rating after about 3 weeks

Compound	Post-emergence effect at 320 g/ha against POLCO in % [%]
COC(=O)CCOC(=O)C(Oc1nn(-c2ncccc2F)c(-c2cncc(F)c2)c1Br)SC (centres unmarked) [Example I-45]	80

The molecules below were run on Viola tricolor (VIOTR) in the same assay as above. Settings: 20 g/ha.
Format: in vivo
Outline: as §4

Compound	Post-emergence effect against VIOTR [%]
COC(=O)CCOC(=O)C(Oc1nn(-c2ncccc2F)c(-c2cncc(F)c2)c1Br)SC (centres unmarked) [Example I-45]	80

Same assay, conditions: 80 g/ha

Compound	Post-emergence effect against VIOTR [%]
COC(=O)CCOC(=O)C(Oc1nn(-c2ncccc2F)c(-c2cncc(F)c2)c1Br)SC (centres unmarked) [Example I-45]	90

Same assay, conditions: 320 g/ha

Compound	Post-emergence effect against VIOTR [%]
COC(=O)CCOC(=O)C(Oc1nn(-c2ncccc2F)c(-c2cncc(F)c2)c1Br)SC (centres unmarked) [Example I-45]	90

These molecules were tested on Matricaria inodora (MATIN) in the same assay as above. Settings: 20 g/ha, visual rating after about 3 weeks.
Format: in vivo
Outline: as §4

Compound	Post-emergence effect at 20 g/ha against MATIN in % [%]
COC(=O)CCOC(=O)C(Oc1nn(-c2ncccc2F)c(-c2cncc(F)c2)c1Br)SC (centres unmarked) [Example I-45]	80

Same assay, conditions: 80 g/ha, visual rating after about 3 weeks

Compound	Post-emergence effect at 80 g/ha against MATIN in % [%]
COC(=O)CCOC(=O)C(Oc1nn(-c2ncccc2F)c(-c2cncc(F)c2)c1Br)SC (centres unmarked) [Example I-45]	90

Same assay, conditions: 320 g/ha, visual rating after about 3 weeks

Compound	Post-emergence effect at 320 g/ha against MATIN in % [%]
COC(=O)CCOC(=O)C(Oc1nn(-c2ncccc2F)c(-c2cncc(F)c2)c1Br)SC (centres unmarked) [Example I-45]	90

These molecules were tested on Lolium rigidum (LOLRI) in the same assay as above. Settings: 320 g/ha, visual rating after about 3 weeks.
Format: in vivo
Outline: as §4

Compound	Post-emergence effect at 320 g/ha against LOLRI in % [%]
COC(=O)CCOC(=O)C(Oc1nn(-c2ncccc2F)c(-c2cncc(F)c2)c1Br)SC (centres unmarked) [Example I-45]	100

These molecules were tested on Echinochloa crus-galli (ECHCG) in the same assay as above. Settings: 320 g/ha, visual rating after about 3 weeks.
Format: in vivo
Outline: as §4

Compound	Post-emergence effect at 320 g/ha against ECHCG in % [%]
COC(=O)CCOC(=O)C(Oc1nn(-c2ncccc2F)c(-c2cncc(F)c2)c1Br)SC (centres unmarked) [Example I-45]	90

Same assay, conditions: Echinochloa crus-galli, 504 h, read-out: Post-emergence effect at 320 g/ha against ECHCG in %

Compound	pest or weed control at 320 g/ha [%]
CCOC(=O)C(Oc1nn(-c2cc(F)ccc2F)c(-c2cncc(F)c2)c1C1CC1)SC (centres unmarked) [Example I-05]	80

The molecules below were run on Amaranthus retroflexus (AMARE) in the same assay as above. Settings: 20 g/ha, visual rating after about 3 weeks.
Format: in vivo
Outline: as §4

Compound	Post-emergence effect at 20 g/ha against AMARE in % [%]
COC(=O)CCOC(=O)C(Oc1nn(-c2ncccc2F)c(-c2cncc(F)c2)c1Br)SC (centres unmarked) [Example I-45]	80

Same assay, conditions: 80 g/ha, visual rating after about 3 weeks

Compound	Post-emergence effect at 80 g/ha against AMARE in % [%]
COC(=O)CCOC(=O)C(Oc1nn(-c2ncccc2F)c(-c2cncc(F)c2)c1Br)SC (centres unmarked) [Example I-45]	90

Same assay, conditions: 320 g/ha, visual rating after about 3 weeks

Compound	Post-emergence effect at 320 g/ha against AMARE in % [%]
COC(=O)CCOC(=O)C(Oc1nn(-c2ncccc2F)c(-c2cncc(F)c2)c1Br)SC (centres unmarked) [Example I-45]	90

Each molecule was assayed on Digitaria sanguinalis (DIGSA) in the same assay as above. Settings: 80 g/ha, visual rating after about 3 weeks.
Format: in vivo
Outline: as §4

Compound	Post-emergence effect at 80 g/ha against DIGSA in % [%]
COC(=O)CCOC(=O)C(Oc1nn(-c2ncccc2F)c(-c2cncc(F)c2)c1Br)SC (centres unmarked) [Example I-45]	80

Same assay, conditions: 320 g/ha, visual rating after about 3 weeks

Compound	Post-emergence effect at 320 g/ha against DIGSA in % [%]
COC(=O)CCOC(=O)C(Oc1nn(-c2ncccc2F)c(-c2cncc(F)c2)c1Br)SC (centres unmarked) [Example I-45]	90
